Values belong to the molecule of their own block, whether it stands above or below them.
Columns and labels:
[1] = molecular target: T1, guinea pig H3 receptor (jejunum) (Cavia porcellus, UniProt Q9JI35); assay: H3 antagonistic activity against H3 agonist-induced inhibition of the electrically evoked contraction of the guinea pig jejunum; type: biochemical; conditions: vs (R)-α-methylhistamine, Schild plot, dihydrogenoxolate salts, read-out: pA2 (sem) (converted)
T1 construct: Whole jejunum segments (2 cm) were prepared and mounted between two platinum electrodes; from tissue; host or cells: guinea pig jejunum (small intestine)
Description: All newly synthesized compounds were converted into their dihydrogenoxolates salts and in vitro evaluated as H3 receptor antagonists against H3 agonist-induced inhibition of the electrically evoked contraction of the guinea pig jejunum.
In the first step, all the obtained compounds were tested for their H3 antagonistic effects in vitro, following standard methods, using the electrically contracting guinea pig jejunum.
Male guinea pigs weighing 300–400 g were sacrificed, and a portion of the small intestine, 20–50 cm proximal to the ileocaecal valve (jejunum), was removed and placed in Krebs buffer (composition (mM) NaCl 118; KCl 5.6; MgSO4 1.18; CaCl2 2.5; NaH2PO4 1.28; NaHCO3 25; glucose 5.5; indomethacin (1 × 10^ℒ6mol/L)). Whole jejunum segments (2 cm) were prepared and mounted between two platinum electrodes (4 mm apart) in 20 mL Krebs buffer, continuously gassed with 95% O2:5% CO2, and maintained at 37 °C. the contractions were recorded isotonically under 1.0 g tension with a Hugo Sachs Hebel–Messvorsatz (Tl-2)/HF-modem (Hugo Sachs Elektronik, Hugstetten, Germany) connected to a pen recorder. The equilibration lasted for one hour with washings every 10 min. The muscle segments were then stimulated at a maximum between 15 and 20 Volts, continuously at a frequency of 0.1 Hz for a duration of 0.5 msec, with rectangular wave electrical pulses, delivered by a Grass Stimulator S-88 (Grass Instruments Co., Quincy, MA, USA). […] The antagonists were preincubated for 20 min during the stimulation, before the preparation were challenged with (R)-α-methylhistamine. Antagonist potency was determined by the construction of a Schild plot, using three different concentrations of the antagonist. The potency of an antagonist is expressed by its pA2 value. The pA2 values were compared with those indicating the potency of thioperamide.

[2] = molecular target: T2, rat histamine H3 receptor (rH3R) (Rattus norvegicus, UniProt Q9QYN8); assay: [3H]-Nα-methylhistamine binding (saturation and displacement) to rat H3R in HEK-293T cell membranes
T2 construct: expressed in transfected cells; host or cells: HEK293T, transient PEI transfection with pcDNA3-rH3R; crude membranes

[3] = molecular target: T3, human histamine H3 receptor (hH3R) (Homo sapiens, UniProt Q9Y5N1); assay: biochemical; type: binding
T3 construct: expressed in transfected cells; host or cells: HEK293T, transient PEI transfection with pcDNA3.1-hH3R; crude membranes

rats = assay: Feeding behavior of rats after repeated subcutaneous administration; type: in vivo, rat; conditions: 3 mg/kg s.c. for 5 days; for amount of consumed food (food intake): versus pre-treatment period
Source text: Finally, compound ADS-003 (1a) was subjected to an in vivo evaluation of its impact on brain neurotransmitter systems. This assessment concerned: • - The effects of the compound on the feeding behavior of rats after its repeated peripheral administration. […] The latter was accomplished by postmortem analyses of the brain tissues of the treated rats.
All animal experimental procedures were in accordance with EU directives and local ethical regulations. Male Wistar rats (260–300 g) were used. The animals were maintained under standard laboratory conditions (liquid and food available ad libitum, 12 h light–dark cycle). For feeding behavior examination, the rats were placed individually in metabolic cages (TecniplastGazzada, Buguggiate, Italy) and kept there throughout the entire test. Pharmacotherapy was preceded by a control period of 4 days aimed to determine the basal feed and water consumptions as well as urine excretion. The rats (n = 8 per group) were randomly given the H3R antagonists ADS-003 or Ciproxifan, the latter serving as a reference compound [40]. Control rats were treated with an equivalent volume of physiological saline. The compounds, dissolved in distilled water with DMSO (7%, v/v), were administered subcutaneously at a dose of 3 mg/kg of body mass for 5 consecutive days, always during the morning hours, following the record of feeding parameters. The dose of ADS-003 had been determined on the basis of a thorough characterization in vitro. The recorded volumes of consumed food are expressed in g or ml per 100 g of body weight or in ml per 24 h, respectively. The final results are given as means, with SEM calculated for each 24 h period, computed from a four-day (before treatment) or a five-day (treatment) monitoring

[4] = test system: cerebral amine neurotransmitter concentrations; assay: Post-mortem brain tissue concentration of histamine, noradrenaline, dopamine and serotonin; type: in vivo, rat; conditions: rats, 3 mg/kg s.c. for 5 days; for histamine concentration in the hypothalamus: not statistically significant
Description: (§1) Following the behavioral study, the rats were sacrificed, and their brains were collected. From each brain, the cerebral cortex and hypothalamus were quickly dissected according to the Glowinski and Iversen method. The samples were immediately frozen in liquid nitrogen and kept at −70 °C until assayed.
The amine concentrations were expressed as ng/g wet weight (HA) or nmol/g wet weight (DA, NA, 5-HT).

MAO-A = assay: Post-mortem cerebral MAO-A activity of treated rats (radioassay); type: in vivo, rat; conditions: cerebral cortex, s.c. 3 mg/kg/daily for 5 days, means ± SEM
Description: as §1
(§2) Monoamine oxidase A and B (EC 1.4.3.4; MAO A and B) activities were estimated in cerebral homogenates with radioassays, using serotonin (fine conc. 200 μM) and β-phenylethylamine (fine conc. 20 μM), as well as specific inhibitors—clorgyline and deprenyl (0.3 μM each), respectively.
(§3) The enzyme activities are expressed as pmol/min/mg protein. Protein concentration was analyzed according to Lowry’s method.

MAO-B = assay: Post-mortem cerebral MAO-B activity of treated rats (radioassay); type: in vivo, rat; conditions: cerebral cortex, s.c. 3 mg/kg/daily for 5 days, means ± SEM
Description: as §1, §2, §3

[5] = test system: histamine N-methyltransferase (HNMT); assay: Post-mortem cerebral histamine N-methyltransferase activity of treated rats (radioenzymatic); type: in vivo, rat; conditions: s.c. 3 mg/kg/daily for 5 days, means ± SEM; for HMNT activity, CTX: cerebral cortex; for HMNT activity, HTH: hypothalamus
H1-receptor = molecular target: T4, H1-receptor (Cavia porcellus, UniProt P31389); assay: H1 antagonistic effects in vitro, guinea pig ileum, histamine as competing agonist; type: biochemical; conditions: read-out: pA2 (H1 antagonistic activity) (converted)
T4 construct: from tissue; host or cells: guinea pig ileum

[6] = compared with Ciproxifan; cited from earlier work

T1 sequence (Q9JI35 whole entry): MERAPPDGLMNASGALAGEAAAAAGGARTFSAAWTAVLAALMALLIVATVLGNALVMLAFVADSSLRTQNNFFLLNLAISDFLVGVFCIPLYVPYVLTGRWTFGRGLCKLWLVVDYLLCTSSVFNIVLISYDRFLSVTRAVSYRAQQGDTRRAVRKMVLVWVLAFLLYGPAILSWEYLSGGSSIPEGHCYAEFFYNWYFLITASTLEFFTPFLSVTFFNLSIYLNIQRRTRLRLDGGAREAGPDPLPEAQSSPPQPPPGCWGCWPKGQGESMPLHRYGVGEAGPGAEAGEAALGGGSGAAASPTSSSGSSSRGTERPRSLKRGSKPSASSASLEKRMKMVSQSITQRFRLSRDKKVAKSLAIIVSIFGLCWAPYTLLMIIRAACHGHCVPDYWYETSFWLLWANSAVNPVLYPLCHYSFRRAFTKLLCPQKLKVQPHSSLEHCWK
T2 sequence (Q9QYN8 whole entry): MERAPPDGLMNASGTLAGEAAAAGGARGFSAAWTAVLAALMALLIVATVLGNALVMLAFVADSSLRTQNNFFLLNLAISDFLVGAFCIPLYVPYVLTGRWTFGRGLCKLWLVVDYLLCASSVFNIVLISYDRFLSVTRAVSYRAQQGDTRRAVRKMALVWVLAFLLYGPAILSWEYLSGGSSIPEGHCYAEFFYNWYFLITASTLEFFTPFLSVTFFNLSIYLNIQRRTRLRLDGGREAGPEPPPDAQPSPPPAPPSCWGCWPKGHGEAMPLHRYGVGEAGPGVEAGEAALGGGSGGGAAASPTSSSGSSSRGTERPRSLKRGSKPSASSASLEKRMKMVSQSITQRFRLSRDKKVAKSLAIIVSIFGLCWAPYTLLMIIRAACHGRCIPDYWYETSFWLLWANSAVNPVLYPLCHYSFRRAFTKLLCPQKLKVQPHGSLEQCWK
T3 sequence (Q9Y5N1 whole entry): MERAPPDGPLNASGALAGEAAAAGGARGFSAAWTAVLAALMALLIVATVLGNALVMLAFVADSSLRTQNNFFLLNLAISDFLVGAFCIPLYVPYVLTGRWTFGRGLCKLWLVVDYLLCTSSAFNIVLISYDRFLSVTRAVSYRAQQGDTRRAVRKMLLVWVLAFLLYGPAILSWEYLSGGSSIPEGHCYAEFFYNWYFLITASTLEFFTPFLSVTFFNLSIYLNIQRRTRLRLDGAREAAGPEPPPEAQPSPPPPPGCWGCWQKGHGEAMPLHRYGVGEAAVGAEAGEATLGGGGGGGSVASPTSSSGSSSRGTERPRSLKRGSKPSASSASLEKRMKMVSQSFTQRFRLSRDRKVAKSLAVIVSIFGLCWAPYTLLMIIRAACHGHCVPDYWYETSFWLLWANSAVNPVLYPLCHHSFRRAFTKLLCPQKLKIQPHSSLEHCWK
T4 sequence (P31389 whole entry): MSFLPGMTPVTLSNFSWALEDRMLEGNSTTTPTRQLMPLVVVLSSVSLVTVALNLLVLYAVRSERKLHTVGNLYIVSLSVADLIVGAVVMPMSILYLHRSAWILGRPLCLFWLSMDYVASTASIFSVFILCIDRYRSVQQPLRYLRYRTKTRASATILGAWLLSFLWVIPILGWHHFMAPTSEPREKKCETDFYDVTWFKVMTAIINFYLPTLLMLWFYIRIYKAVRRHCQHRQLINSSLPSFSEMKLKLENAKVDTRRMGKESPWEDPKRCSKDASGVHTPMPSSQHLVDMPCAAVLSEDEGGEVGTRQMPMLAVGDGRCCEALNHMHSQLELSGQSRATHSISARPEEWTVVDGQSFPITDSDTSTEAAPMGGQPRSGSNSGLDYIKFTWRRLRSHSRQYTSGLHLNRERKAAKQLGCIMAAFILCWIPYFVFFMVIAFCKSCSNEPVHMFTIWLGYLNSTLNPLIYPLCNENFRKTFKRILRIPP

SMILES: CCCN(C)CCCCCOC1CCN(Cc2cc3ccccc3o2)CC1 [1a]
Kb [1]: 5.37 nM
Ki [2]: 12.6 nM
Ki [3]: 251 nM
crossing of the blood–brain barrier (suggested by the food intake results) (rats): crosses the BBB
amount of consumed food (food intake) (rats): statistically significant reduction
histamine levels in the cerebral cortex [4]: no changes
noradrenaline levels in the cerebral cortex [4]: enhanced
histamine concentration in the hypothalamus [4]: tendency to increase
MAO-A activity, CTX (MAO-A): 1536 ± 50 pmol/min/mg Protein
MAO-B activity, CTX (MAO-B): 1065 ± 48 pmol/min/mg Protein
HMNT activity, CTX [5]: 44.41 ± 1.06 pmol/min/mg Protein
HMNT activity, HTH [5]: 41.09 ± 0.80 pmol/min/mg Protein

Kb [1]: 55 nM
Kb (H1-receptor): > 100000 nM
SMILES: CCCN(C)CCCCCOC1CCN(CCc2cc3ccccc3o2)CC1 [1b, 5-{{1-[2-(1-Benzofuran-2-yl)ethyl]piperidin-4-yl}oxy}-N-methyl-N-propylpentan-1-amine]

Kb [1]: 77.6 nM
SMILES: CCCN(C)CCCCCOC1CCN(CCCc2cc3ccccc3o2)CC1 [1c, 5-{{1-[3-(1-Benzofuran-2-yl)propyl]piperidin-4-yl}oxy}-N-methyl-N-propylpentan-1-amine]

Kb [1]: 214 nM
SMILES: CCCN(C)CCCCCOC1CCN(CCc2ccccc2)CC1 [1e, N-Methyl-5-[(1-phenethylpiperidin-4-yl)oxy]-N-propylpentan-1-amine]

Kb [1]: 30.9 nM
Kb (H1-receptor): > 100000 nM
SMILES: CCCN(C)CCCCCOC1CCN(CCCc2ccccc2)CC1 [1f, N-Methyl-5-{[1-(3-phenylpropyl)piperidin-4-yl]oxy}-N-propylpentan-1-amine]

Kb [1]: 479 nM
SMILES: CCCN(C)CCCCCOCCCN(C)CCc1cc2ccccc2o1 [2b, 5-{3-{[2-(Benzofuran-2-yl)ethyl](methyl)amino}propoxy}-N-methyl-N-propylpentan-1-amine]

Kb [1]: 427 nM
SMILES: CCCN(C)CCCCCOCCCN(C)CCCc1cc2ccccc2o1 [2c, 5-{3-{[3-(Benzofuran-2-yl)propyl](methyl)amino}propoxy}-N-methyl-N-propylpentan-1-amine]

Kb [1]: 191 nM
SMILES: CCCN(C)CCCCCOCCCN(C)CCc1ccccc1 [2e, N-Methyl-5-{3-[methyl(phenethyl)amino]propoxy}-N-propylpentan-1-amine]

Kb [1]: 162 nM
SMILES: CCCN(C)CCCCCOCCCN(C)CCCc1ccccc1 [2f, N-Methyl-5-(3-(methyl(3-phenylpropyl)amino)propoxy)-N-propylpentan-1-amine]

SMILES: O=C(c1ccc(OCCCc2cnc[nH]2)cc1)C1CC1 [Ciproxifan, reference compound]
amount of consumed food (food intake) (rats): statistically significant reduction
histamine levels in the cerebral cortex [4]: no changes
noradrenaline levels in the cerebral cortex [4]: enhanced
histamine concentration in the hypothalamus [4]: tendency to increase
MAO-A activity, CTX (MAO-A): 1654 ± 31 pmol/min/mg Protein
MAO-B activity, CTX (MAO-B): 1049 ± 56 pmol/min/mg Protein
HMNT activity, CTX [5]: 46.90 ± 3.59 pmol/min/mg Protein
HMNT activity, HTH [5]: 51.76 ± 5.67 pmol/min/mg Protein

SMILES: S=C(NC1CCCCC1)N1CCC(c2cnc[nH]2)CC1 [Thioperamide]
bioavailability / brain penetration [6]: lower bioavailability

SMILES: CNCCc1cnc[nH]1 [[^3H]-N^α-MH, [^3H]-N^α-methylhistamine, reference compound]
Kd ([2]; rH3R, HEK-293T membranes): 2.72 ± 0.34 nM
Kd ([3]; read-out: KD (saturation binding)): 0.9 ± 0.08 nM

From PMC5979327 (International Journal of Molecular Sciences, 2018)
